Read-outs that look alike come from different tables or passages of the source.
Assays:
BRD3 = BRD3 (Homo sapiens, UniProt Q15059); assay: Fluorescence anisotropy (FA) binding assay, BRD3
Method: (§1) Fluorescence Anisotropy (FA) Binding Assays.
(§2) FA assays were performed as described in Chung et al., J. Med Chem., 2011 54(11): 3827-38 except that protein concentrations were 125 nM and plates were read on a Spectramax M5 plate reader.

BRD2 = BRD2 (Homo sapiens, UniProt P25440); assay: Fluorescence anisotropy (FA) binding assay, BRD2
Method: as §1, §2

BRD4 = BRD4 (Homo sapiens, UniProt O60885); assay: Fluorescence anisotropy (FA) binding assay, BRD4
Method: as §1, §2

[1] = BRD3, protein 125 nM, read-out: IC50 range (FA assay) BRD3, BRD-N monomers
[2] = BRD2, protein 125 nM, read-out: IC50 range (FA assay) BRD2, BRD-N monomers
[3] = BRD4, protein 125 nM, read-out: IC50 range (FA assay) BRD4, BRD-N monomers
[4] = BRD3, protein 125 nM, read-out: IC50 range (FA assay) BRD3, BRD-E monomers
[5] = BRD2, protein 125 nM, read-out: IC50 range (FA assay) BRD2, BRD-E monomers
[6] = BRD4, protein 125 nM, read-out: IC50 range (FA assay) BRD4, BRD-E monomers

BRD2, sequence (P25440 whole entry): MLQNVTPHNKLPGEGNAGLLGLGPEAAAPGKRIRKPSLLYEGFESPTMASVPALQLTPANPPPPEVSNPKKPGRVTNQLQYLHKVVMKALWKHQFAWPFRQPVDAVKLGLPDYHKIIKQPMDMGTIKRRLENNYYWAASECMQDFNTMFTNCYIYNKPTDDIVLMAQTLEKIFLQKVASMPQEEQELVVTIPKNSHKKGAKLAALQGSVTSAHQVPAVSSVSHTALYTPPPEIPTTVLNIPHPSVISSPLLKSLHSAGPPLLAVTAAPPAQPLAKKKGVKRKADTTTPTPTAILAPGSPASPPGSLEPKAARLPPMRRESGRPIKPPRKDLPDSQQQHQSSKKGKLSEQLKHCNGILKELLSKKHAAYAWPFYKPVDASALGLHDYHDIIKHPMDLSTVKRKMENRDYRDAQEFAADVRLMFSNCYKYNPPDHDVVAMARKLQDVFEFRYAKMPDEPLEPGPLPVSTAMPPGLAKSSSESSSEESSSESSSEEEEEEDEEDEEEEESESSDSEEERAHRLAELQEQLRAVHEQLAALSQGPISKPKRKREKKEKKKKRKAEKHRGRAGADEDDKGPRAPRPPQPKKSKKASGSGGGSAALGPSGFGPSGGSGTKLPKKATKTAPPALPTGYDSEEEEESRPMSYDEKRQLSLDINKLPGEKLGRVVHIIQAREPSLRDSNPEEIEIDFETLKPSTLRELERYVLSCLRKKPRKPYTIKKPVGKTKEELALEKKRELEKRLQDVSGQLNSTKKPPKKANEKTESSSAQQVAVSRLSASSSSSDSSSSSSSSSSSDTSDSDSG
BRD3, sequence (Q15059 whole entry): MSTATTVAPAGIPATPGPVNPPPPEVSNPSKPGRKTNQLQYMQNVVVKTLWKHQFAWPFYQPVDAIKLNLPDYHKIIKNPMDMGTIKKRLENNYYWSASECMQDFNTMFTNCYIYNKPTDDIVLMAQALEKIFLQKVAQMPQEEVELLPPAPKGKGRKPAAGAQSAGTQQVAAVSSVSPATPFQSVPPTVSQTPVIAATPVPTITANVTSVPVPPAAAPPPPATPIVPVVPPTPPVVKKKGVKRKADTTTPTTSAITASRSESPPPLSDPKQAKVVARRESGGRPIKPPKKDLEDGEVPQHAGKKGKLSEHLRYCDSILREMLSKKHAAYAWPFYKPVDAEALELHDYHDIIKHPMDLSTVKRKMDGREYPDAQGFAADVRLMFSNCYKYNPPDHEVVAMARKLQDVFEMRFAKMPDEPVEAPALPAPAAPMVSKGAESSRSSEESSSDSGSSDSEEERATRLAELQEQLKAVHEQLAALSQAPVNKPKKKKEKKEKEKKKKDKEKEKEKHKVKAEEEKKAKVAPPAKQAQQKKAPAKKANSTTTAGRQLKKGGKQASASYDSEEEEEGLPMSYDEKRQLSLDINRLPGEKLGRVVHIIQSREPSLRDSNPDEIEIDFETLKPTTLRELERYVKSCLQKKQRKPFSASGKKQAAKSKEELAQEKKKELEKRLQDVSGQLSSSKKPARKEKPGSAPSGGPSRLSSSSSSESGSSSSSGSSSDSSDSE

Structure (SMILES)	IC50 (BRD3; [1])	IC50 (BRD2; [2])	IC50 (BRD4; [3])	IC50 (BRD3; [4])	IC50 (BRD2; [5])	IC50 (BRD4; [6])	further results
COc1ccc2c(c1)C(c1ccc(Cl)cc1)=N[C@@H](CC(=O)NCc1cccc(B(O)O)c1)c1nnc(C)n1-2 [BRD-E-10, (S)-(3-((2-(6-(4-chlorophenyl)-8-methoxy-1-methyl-4H-benzo[f][1,2,4]triazolo[4,3-a][1,4]diazepin-4-yl)acetamido)methyl)phenyl)boronic acid]							IC50 (BRD3): 0.05 to 1 µM; IC50 (BRD2): 0.05 to 1 µM; IC50 (BRD4): 0.05 to 1 µM
COc1ccc2c(c1)C(c1ccc(Cl)cc1)=N[C@@H](CC(=O)NCCNC(=O)Cc1ccc(O)c(O)c1)c1nnc(C)n1-2 [BRD-N-30, 2-((4S)-6-(4-chlorophenyl)-8-methoxy-1-methyl-4H-benzo[f][1,2,4]triazolo[4,3-a][1,4]diazepin-4-yl)-N-(2-(2-(3,4-dihydroxyphenyl)acetamido)ethyl)acetamide]	0.05 to 1 µM	0.05 to 1 µM	0.05 to 1 µM				
CCNC(=O)C[C@@H]1N=C(c2ccc(Cl)cc2)c2cc(OCCCCNC(=O)c3ccc(O)c(O)c3)ccc2-n2c(C)nnc21 [BRD-N-28, (S)—N-(4-((6-(4-chlorophenyl)-4-(2-(ethylamino)-2-oxoethyl)-1-methyl-4H-benzo[f][1,2,4]triazolo[4,3-a][1,4]diazepin-8-yl)oxy)butyl)-3,4-dihydroxybenzamide]	0.05 to 1 µM	1 to 30 µM	1 to 30 µM				
COc1ccc2c(c1)C(c1ccc(Cl)cc1)=N[C@@H](CC(=O)NCCNC(=O)c1cccc(-c3cccc(B(O)O)c3)c1)c1nnc(C)n1-2 [BRD-E-31, (3′-((2-(2-((4S)-6-(4-chlorophenyl)-8-methoxy-1-methyl-4H-benzo[f][1,2,4]triazolo[4,3-a][1,4]diazepin-4-yl)acetamido)ethyl)carbamoyl)-[1,1′-biphenyl]-3-yl)boronic acid]				0.05 to 1 µM	0.05 to 1 µM	0.05 to 1 µM	
COc1ccc2c(c1)C(c1ccc(Cl)cc1)=N[C@@H](CC(=O)NCCNC(=O)c1cccc(B(O)O)c1)c1nnc(C)n1-2 [BRD-E-02, (3-((2-(2-((4S)-6-(4-chlorophenyl)-8-methoxy-1-methyl-4H-benzo[f][1,2,4]triazolo[4,3-a][1,4]diazepin-4-yl)acetamido)ethyl)carbamoyl)phenyl)boronic acid]							IC50 (BRD3): 0.05 to 1 µM; IC50 (BRD2): 0.05 to 1 µM; IC50 (BRD4): 0.05 to 1 µM
CCNC(=O)C[C@@H]1N=C(c2ccc(Cl)cc2)c2cc(OCC(=O)Nc3ccc(O)c(O)c3)ccc2-n2c(C)nnc21 [BRD-N-16, (S)-2-((6-(4-chlorophenyl)-4-(2-(ethylamino)-2-oxoethyl)-1-methyl-4H-benzo[f][1,2,4]triazolo[4,3-a][1,4]diazepin-8-yl)oxy)-N-(3,4-dihydroxyphenyl)acetamide]	0.05 to 1 µM	0.05 to 1 µM	0.05 to 1 µM				
CCNC(=O)C[C@@H]1N=C(c2ccc(Cl)cc2)c2cc(OCCCNC(=O)c3cccc(B(O)O)c3)ccc2-n2c(C)nnc21 [BRD-E-23, (S)-(3-((3-((6-(4-chlorophenyl)-4-(2-(ethylamino)-2-oxoethyl)-1-methyl-4H-benzo[f][1,2,4]triazolo[4,3-a][1,4]diazepin-8-yl)oxy)propyl)carbamoyl)phenyl)boronic acid]				1 to 30 µM	1 to 30 µM	1 to 30 µM	
CCNC(=O)C[C@@H]1N=C(c2ccc(Cl)cc2)c2cc(OCCNC(=O)c3cccc(B(O)O)c3)ccc2-n2c(C)nnc21 [BRD-E-21, (S)-(3-((2-((6-(4-chlorophenyl)-4-(2-(ethylamino)-2-oxoethyl)-1-methyl-4H-benzo[f][1,2,4]triazolo[4,3-a]diazepin-8-yl)oxy)ethyl)carbamoyl)phenyl)boronic acid]				0.05 to 1 µM	0.05 to 1 µM	0.05 to 1 µM	
COc1ccc2c(c1)C(c1ccc(Cl)cc1)=N[C@@H](CC(=O)NCCCCCNC(=O)c1cccc(B(O)O)c1)c1nnc(C)n1-2 [BRD-E-08, (3-((5-(2-((4S)-6-(4-chlorophenyl)-8-methoxy-1-methyl-4H-benzo[f][1,2,4]triazolo[4,3-a][1,4]diazepin-4-yl)acetamido)pentyl)carbamoyl)phenyl)-boronic acid]				0.05 to 1 µM	0.05 to 1 µM	0.05 to 1 µM	
COc1ccc2c(c1)C(c1ccc(Cl)cc1)=N[C@@H](CC(=O)NCCNC(=O)Cc1cccc(B(O)O)c1)c1nnc(C)n1-2 [BRD-E-38, (3-(2-((2-(2-((4S)-6-(4-chlorophenyl)-8-methoxy-1-methyl-4H-benzo[f][1,2,4]triazolo[4,3-a][1,4]diazepin-4-yl)acetamido)ethyl)amino)-2-oxoethyl)phenyl)boronic acid]				0.05 to 1 µM	0.05 to 1 µM	0.05 to 1 µM	
COc1ccc2c(c1)C(c1ccc(Cl)cc1)=N[C@@H](CC(=O)NCCCCNC(=O)c1cccc(B(O)O)c1)c1nnc(C)n1-2 [BRD-E-06, (3-((4-(2-((4S)-6-(4-chlorophenyl)-8-methoxy-1-methyl-4H-benzo[f][1,2,4]triazolo[4,3-a][1,4]diazepin-4-yl)acetamido)butyl)carbamoyl)phenyl)boronic acid]				0.05 to 1 µM	0.05 to 1 µM	0.05 to 1 µM	
COc1ccc2c(c1)C(c1ccc(Cl)cc1)=N[C@@H](CC(=O)NCCNC(=O)c1ccc(O)c(O)c1)c1nnc(C)n1-2 [BRD-N-01, N-(2-(2-((4S)-6-(4-chlorophenyl)-8-methoxy-1-methyl-4H-benzo[f][1,2,4]triazolo[4,3-a][1,4]diazepin-4-yl)acetamido)ethyl)-3,4-dihydroxybenzamide]	0.05 to 1 µM	0.05 to 1 µM	0.05 to 1 µM				
COc1ccc2c(c1)C(c1ccc(Cl)cc1)=N[C@@H](CC(=O)NCc1ccc(O)c(O)c1)c1nnc(C)n1-2 [BRD-N-09, (S)-2-(6-(4-chlorophenyl)-8-methoxy-1-methyl-4H-benzo[f][1,2,4]triazolo[4,3-a][1,4]diazepin-4-yl)-N-(3,4-dihydroxybenzyl)acetamide]	0.05 to 1 µM	0.05 to 1 µM	0.05 to 1 µM				
CCNC(=O)C[C@@H]1N=C(c2ccc(Cl)cc2)c2cc(OCCCNC(=O)c3ccc(O)c(O)c3)ccc2-n2c(C)nnc21 [BRD-N-26, (S)—N-(3-((6-(4-chlorophenyl)-4-(2-(ethylamino)-2-oxoethyl)-1-methyl-4H-benzo[f][1,2,4]triazolo[4,3-a][1,4]diazepin-8-yl)oxy)propyl)-3,4-dihydroxybenzaamide]	1 to 30 µM	1 to 30 µM	1 to 30 µM				
COc1ccc2c(c1)C(c1ccc(Cl)cc1)=N[C@@H](CC(=O)NCCCNC(=O)c1ccc(O)c(O)c1)c1nnc(C)n1-2 [BRD-N-03, N-(3-(2-((4S)-6-(4-chlorophenyl)-8-methoxy-1-methyl-4H-benzo[f][1,2,4]triazolo[4,3-a][1,4]diazepin-4-yl)acetamido)propyl)-3,4-dihydroxybenzamide]	0.05 to 1 µM	0.05 to 1 µM	0.05 to 1 µM				
COc1ccc2c(c1)C(c1ccc(Cl)cc1)=N[C@@H](CC(=O)NCCNC(=O)Cc1ccc(B(O)O)cc1)c1nnc(C)n1-2 [BRD-E-27, (4-(2-((2-(2-((4S)-6-(4-chlorophenyl)-8-methoxy-1-methyl-4H-benzo[f][1,2,4]triazolo[4,3-a][1,4]diazepin-4-yl)acetamido)ethyl)amino)-2-oxoethyl)phenyl)boronic acid]					1 to 30 µM	1 to 30 µM	
